# Measured values reported in patent EP0728012B1, “NOVEL GnRH ANALOGUES WITH ANTITUMOUR EFFECTS AND PHARMACEUTICAL COMPOSITIONS THEREOF” (Lovas, Sandor, priority 1994, dated 1996).
# Key:
# [1] = test system: MDA-MB-231; conditions: MDA-MB-231; 30 µM active substance; conjugate, treated once
# Protocol: (§1) The procedure of treatment was as follows. After trypsinization the cells, 400,000 cells of MCF-7, MDA-MB-231 human mammary carcinoma, PC3 human prostate carcinoma or Ishikawa human endometrium tumour each were passed into Petri dishes of 10 cm in diameter. Starting from the day following transfer, the cells were treated with the substances to be tested in solution prepared with the nutrient medium during the exponential growth phase. […]
# [2] = test system: MCF-7; conditions: MCF-7; 30 µM active substance; conjugate, treated once; cell count on 7th day
# Protocol: as §1
# [3] = test system: humoral immune response; experiment: Humoral immune response (antibody production of B-lymphocytes); assay type: in vivo; conditions: mice; dose not stated
# Text: (§2) The immunosuppressive side effect of cytostatics used in tumour therapy is commonly known. This effect can be compensated to a certain grade by various immunostimulants (endotoxin, levamisole). Polypeptides with much […] molecular weights (about 40,000 to 80,000) are also capable of protecting against immunosuppressive effect [Gaál et al: J. Biol. Resp. Modif., 5, 148-159 (1986)]. The molecular weight of the novel polyanionic P-GFLG-OH macromolecule tested by us is about 10,000, that of MI-1892 is about 2000, i.e. relatively low; therefore, their immunostimulatory activity was unexpected.
# [4] = test system: cellular immune response; experiment: Cellular immune response (rosette formation against BRBC antigen); assay type: in vivo; conditions: mice; dose not stated
# Text: as §2
# [5] = test system: MDA-MB-231 xenograft; experiment: In vivo antitumour effect on MDA-MB-231 xenograft in immunosuppressed mice; parameters: species or system CBA/Ca mice; conditions: for tumour-free animals: end of the 6th week, first series
# Protocol: The immunosuppression of mice was carried out by using the method of Steel et al. [Br. J. Cancer, 37, 224-230 (1978)]. Immunosuppression and xeno-transplantation
# CBA-Ca female mice of about 6 weeks old were thymectomized and then, after one week, they were irradiated with 60Co (whole body irradiation; the lethal dose is 9.5 Gray). Within 24 hours 3 to 5 x 10^5 myelocytes were injected into the animals. Beneath the skin of the immunosuppressed mice 2 x 10^7 tumour cells or, in the case of later passages, […] were implanted. […] The treatment with steroid hormone was stopped by at least one week before beginning the investigation.
# Recent investigations have begun on 28 animals bearing MCF-7 xenograft and on 28 animals bearing MDA-MB-231 xenograft. On animals bearing MCF-7 tumour the treatment was commenced in the 5th week following xeno-transplantation; the tumour volume was 205 to 225 mm^3. On animals bearing MDA-MB-231 tumour, the treatment was started in the 4th week after xeno-transplantation with a tumour volume of 140 to 150 mm^3. […] The control groups were daily treated with physiological saline s.c. (Each treated group consisting of 7 animals).
# A more recent study was started on 28 animals bearing MDA-MB-231 xenograft. The treatment was begun in the 4th or 5th week following xenotransplantation. The tumour volume was 0.165 to 0.194 cm^3. […] (For treatment of the control group, see the preceding Examples). Each group consisted of 7 animals.
# [6] = Castration effect: uterus weight of xenograft-bearing animals; assay type: in vivo, mice; conditions: animals bearing MCF-7 xenografts; treatment for four weeks
# Text: The castration effect is illustrated by the following data.
# [7] = Table V, treatment week 2, conjugates 1x50 µg daily s.c.
# [8] = Table V, treatment week 6, MI-1892 2x25 µg, conjugates 1x50 µg daily s.c.
# [9] = week 0, daily s.c., P-GFLG-1544 1 x 50 µg, P-GFLG-1892 1 x 75 µg
# [10] = week 1, daily s.c., P-GFLG-1544 1 x 50 µg, P-GFLG-1892 1 x 75 µg
# [11] = week 2, daily s.c., P-GFLG-1544 1 x 50 µg, P-GFLG-1892 1 x 75 µg
# [12] = week 3, daily s.c., P-GFLG-1544 1 x 50 µg, P-GFLG-1892 1 x 75 µg
# [13] = week 4, daily s.c., P-GFLG-1544 1 x 50 µg, P-GFLG-1892 1 x 75 µg
# [14] = week 5, daily s.c., P-GFLG-1544 1 x 50 µg, P-GFLG-1892 1 x 75 µg
# [15] = week 6, daily s.c., P-GFLG-1544 1 x 50 µg, P-GFLG-1892 1 x 75 µg
# [16] = MDA-MB-231 xenograft, after 9 week treatment, 100 µg daily s.c.
# [17] = Table V, treatment week 2, 1x100 µg daily s.c.
# [18] = Table V, treatment week 6, 1x100 µg daily s.c.
# [19] = week 0, daily s.c., 1 x 100 µg series
# [20] = week 1, daily s.c., 1 x 100 µg series
# [21] = week 2, daily s.c., 1 x 100 µg series
# [22] = week 3, daily s.c., 1 x 100 µg series
# [23] = week 4, daily s.c., 1 x 100 µg series
# [24] = week 5, daily s.c., 1 x 100 µg series
# [25] = week 6, daily s.c., 1 x 100 µg series
# [26] = week 7, daily s.c., 1 x 100 µg series
substance,measurement,setting,value
"Ac-D-Trp^1,3,D-Cpa^2, {Lys[n-poly(N-vinyl pyrrolidone-co-maleic acid)-Gly-Phe-Leu-Gly-]}^5, [a-Asp(DEA)]^6, D-Ala^10-GnRH [P-GFLG-1892]",% Inhibition of cell division (proliferation),[1],42%
same,% Inhibition of cell division (proliferation),[2],45%
same,increase of the humoral immune response,[3],possesses an immunostimulatory effect
same,increase of the cellular immune response,[4],two-fold
same,tumour-free animals,[5]; MDA-MB-231 xenograft,A tumour-free animal was found
same,Inhibition %,[5]; [7],26.5%
same,Tumour volume as control (%),[5]; [7],73.5%
same,Inhibition %,[5]; [8],44%
same,Tumour volume as control (%),[5]; [8],56%
same,Tumour volume (cm^3),[5]; [9],0.15 cm^3
same,Tumour volume as control (%),[5]; [9],100%
same,Tumour volume (cm^3),[5]; [10],0.21 cm^3
same,Tumour volume as control (%),[5]; [10],84%
same,Tumour volume (cm^3),[5]; [11],0.25 cm^3
same,Tumour volume as control (%),[5]; [11],79%
same,Tumour volume (cm^3),[5]; [12],0.27 cm^3
same,Tumour volume as control (%),[5]; [12],74%
same,Tumour volume (cm^3),[5]; [13],0.34 cm^3
same,Tumour volume as control (%),[5]; [13],81%
same,Tumour volume (cm^3),[5]; [14],0.33 cm^3
same,Tumour volume as control (%),[5]; [14],75%
same,Tumour volume (cm^3),[5]; [15],0.33 cm^3
same,Tumour volume as control (%),[5]; [15],58%
"Ac-D-Trp^1,3,D-Cpa^2,{Lys(n-poly-(N-vinylpyrrolidone-co-maleic acid)-Gly-Phe-Leu-Gly]}^6,D-Ala^10-GnRH [P-GFLG-1544]",% Inhibition of cell division (proliferation),[1],45%
same,% Inhibition of cell division (proliferation),[2],58%
same,uterus weight,[6],0.1149 ± 0.0110 g
same,animals that became tumour-free,"[5]; MDA-MB-231 xenograft, 100 µg daily s.c., 6th week of treatment",1 animals from 7
same,Volume (cm^3) of tumours,[5]; [16],1.618 ± 0.518 cm^3
same,Weight (g) of tumours,[5]; [16],0.94 ± 0.52 g
same,tumour-free animals,[5]; MDA-MB-231 xenograft,A tumour-free animal was found
same,Inhibition %,[5]; [17],29%
same,Tumour volume as control (%),[5]; [17],71%
same,Inhibition %,[5]; [7],23.5%
same,Tumour volume as control (%),[5]; [7],76.5%
same,Inhibition %,[5]; [18],53%
same,Tumour volume as control (%),[5]; [18],47%
same,Inhibition %,[5]; [8],40%
same,Tumour volume as control (%),[5]; [8],60%
same,Tumour volume (cm^3),[5]; [19],0.17 cm^3
same,Tumour volume as control (%),[5]; [19],101%
same,Tumour volume (cm^3),[5]; [9],0.15 cm^3
same,Tumour volume as control (%),[5]; [9],100%
same,Tumour volume (cm^3),[5]; [20],0.24 cm^3
same,Tumour volume as control (%),[5]; [20],105%
same,Tumour volume (cm^3),[5]; [10],0.21 cm^3
same,Tumour volume as control (%),[5]; [10],83%
same,Tumour volume (cm^3),[5]; [21],0.3 cm^3
same,Tumour volume as control (%),[5]; [21],72%
same,Tumour volume (cm^3),[5]; [11],0.21 cm^3
same,Tumour volume as control (%),[5]; [11],66%
same,Tumour volume (cm^3),[5]; [22],0.36 cm^3
same,Tumour volume as control (%),[5]; [22],65%
same,Tumour volume (cm^3),[5]; [12],0.24 cm^3
same,Tumour volume as control (%),[5]; [12],66%
same,Tumour volume (cm^3),[5]; [23],0.35 cm^3
same,Tumour volume as control (%),[5]; [23],53%
same,Tumour volume (cm^3),[5]; [13],0.28 cm^3
same,Tumour volume as control (%),[5]; [13],67%
same,Tumour volume (cm^3),[5]; [24],0.46 cm^3
same,Tumour volume as control (%),[5]; [24],49%
same,Tumour volume (cm^3),[5]; [14],0.33 cm^3
same,Tumour volume as control (%),[5]; [14],75%
same,Tumour volume (cm^3),[5]; [25],0.58 cm^3
same,Tumour volume as control (%),[5]; [25],47%
same,Tumour volume (cm^3),[5]; [15],0.36 cm^3
same,Tumour volume as control (%),[5]; [15],63%
same,Tumour volume (cm^3),[5]; [26],0.75 cm^3
same,Tumour volume as control (%),[5]; [26],59%
